From patent publication US8030300B2, “Ligands for nicotinic acetylcholine receptors, and methods of making and using them” (priority 2003, dated 2011)
Like-named read-outs stand apart in the source and are kept apart here.

Key:
Type in all cases: binding
[1] = target: T1, α4β2 nAChR subtype (Rattus norvegicus, UniProt P09483+P12390); assay: biochemical
T1 construct: expressed in transfected cells
Excerpt: (§1) In order to assess the steric and hydropathic effects of the C-5 substituents of the pyridine on the binding affinity and subtype-selectivity at neuronal nicotinic acetylcholine receptors. […] The binding affinity ratios for a ligand, calculated from its affinities at an α subunit paired with either the β2 osubunit or the β4 subunit, represents a measure of the selectivity of that ligand with regard to the β subunits.

[2] = tested on: receptors in rat forebrain (mainly α4β2); assay: biochemical; details: Table 3; ratio of the corresponding Ki values
Excerpt: as §1
(§2) In Vitro Inhibition of ^3H-Epibatidin Binding
(§3) The high affinity binding site for ^3H-epibatidin is most certainly binding to the α4β2 subtype of nicotinic receptors. The identity of the low affinity site is still believed to be unknown.
(§4) Tissue preparation: Preparations may be performed at 0-4° C. unless otherwise indicated. […] The tissue suspension may then be centrifuged at 27,000×g for 10 min. The supernatant is then discarded and the pellet may then be washed three times by centrifugation at 27,000×g for 10 min in 20 mL fresh buffer, and the final pellet may be resuspended in fresh buffer (400 mL per g of original tissue) and used for binding assays.
(§5) Assay: Aliquots of 2.0 mL homogenate may be added to 0.100 mL of test solution and 0.100 mL of ^3H-epibatidin (0.3 nM, final concentration), mixed and incubated for 60 min at room temperature. […] The amount of radioactivity on the filters may be determined by conventional liquid scintillation counting. Specific binding is total binding minus non-specific binding.

[3] = target: T2, α2β2 nAChR subtype (Rattus norvegicus, UniProt P12389+P12390); assay: biochemical
T2 construct: expressed in transfected cells
Excerpt: as §1

[4] = target: T3, α2β4 nAChR subtype (Rattus norvegicus, UniProt P12389+P12392); assay: biochemical
T3 construct: expressed in transfected cells
Excerpt: as §1

[5] = target: T4, α4β4 nAChR subtype (Rattus norvegicus, UniProt P09483+P12392); assay: biochemical
T4 construct: expressed in transfected cells
Excerpt: as §1

[6] = target: T5, α3β4 nAChR subtype (Rattus norvegicus, UniProt P04757+P12392); assay: biochemical
T5 construct: expressed in transfected cells
Excerpt: as §1

[7] = target: T6, α3β2 nAChR subtype (Rattus norvegicus, UniProt P04757+P12390); assay: biochemical
T6 construct: expressed in transfected cells
Excerpt: as §1

[8] = target: T7, receptors in rat forebrain (mainly α4β2) (Rattus norvegicus, UniProt P09483+P12390); details: Table 6, [3H]-EB 0.099 nM, 0.091 nM, n = 1
T7 construct: from tissue; host or cells: rat forebrain homogenate

[9] = target: T7, receptors in rat forebrain (mainly α4β2); assay: biochemical
Excerpt: as §1, §2, §3, §4, §5

[10] = Table 5, rat nAChR subtypes, read-out: Ki α4β2
[11] = Table 6, [3H]-EB 0.099 nM, 0.091 nM, ligand 0.00197-100 μM, n = 1, read-out: Ki α4β2
[12] = Table 5, rat nAChR subtypes, read-out: Ki α2β2
[13] = Table 6, [3H]-EB 0.099 nM, 0.091 nM, ligand 0.00197-100 μM, n = 1, read-out: Ki α2β2
[14] = Table 5, rat nAChR subtypes, read-out: Ki α2β4
[15] = Table 6, [3H]-EB 0.099 nM, 0.091 nM, ligand 0.00197-100 μM, n = 1, read-out: Ki α2β4
[16] = Table 5, rat nAChR subtypes, read-out: Ki α4β4
[17] = Table 6, [3H]-EB 0.099 nM, 0.091 nM, ligand 0.00197-100 μM, n = 1, read-out: Ki α4β4
[18] = Table 5, rat nAChR subtypes, read-out: Ki α3β4
[19] = Table 6, [3H]-EB 0.099 nM, 0.091 nM, ligand 0.00197-100 μM, n = 1, read-out: Ki α3β4
[20] = Table 5, rat nAChR subtypes, read-out: Ki α3β2
[21] = Table 6, [3H]-EB 0.099 nM, 0.091 nM, ligand 0.00197-100 μM, n = 1, read-out: Ki α3β2
[22] = Table 5, *Rat forebrain, mainly α4β2, read-out: Ki α4β2*
[23] = Ki α4β2, Table 5, rat nAChR subtypes
[24] = Ki α2β2, Table 5, rat nAChR subtypes
[25] = Ki α2β4, Table 5, rat nAChR subtypes
[26] = Ki α4β4, Table 5, rat nAChR subtypes
[27] = Ki α3β4, Table 5, rat nAChR subtypes
[28] = Ki α3β2, Table 5, rat nAChR subtypes
[29] = Ki α4β2*, Table 5, *Rat forebrain, mainly α4β2

T3 sequence (P12389 28-511): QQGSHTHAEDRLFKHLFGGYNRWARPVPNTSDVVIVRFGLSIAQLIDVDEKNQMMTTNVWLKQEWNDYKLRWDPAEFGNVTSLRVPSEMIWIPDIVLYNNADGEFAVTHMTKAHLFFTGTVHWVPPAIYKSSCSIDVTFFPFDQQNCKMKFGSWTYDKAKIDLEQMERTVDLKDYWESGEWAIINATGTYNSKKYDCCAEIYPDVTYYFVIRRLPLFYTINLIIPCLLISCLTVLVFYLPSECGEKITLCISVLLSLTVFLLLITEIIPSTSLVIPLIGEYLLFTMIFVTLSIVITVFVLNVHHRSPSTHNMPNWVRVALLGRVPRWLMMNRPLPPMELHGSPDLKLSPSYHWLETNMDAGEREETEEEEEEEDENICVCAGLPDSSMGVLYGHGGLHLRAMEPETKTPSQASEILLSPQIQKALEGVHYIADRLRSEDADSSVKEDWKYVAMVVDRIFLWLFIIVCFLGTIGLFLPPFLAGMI
T3 sequence (P12392 21-495): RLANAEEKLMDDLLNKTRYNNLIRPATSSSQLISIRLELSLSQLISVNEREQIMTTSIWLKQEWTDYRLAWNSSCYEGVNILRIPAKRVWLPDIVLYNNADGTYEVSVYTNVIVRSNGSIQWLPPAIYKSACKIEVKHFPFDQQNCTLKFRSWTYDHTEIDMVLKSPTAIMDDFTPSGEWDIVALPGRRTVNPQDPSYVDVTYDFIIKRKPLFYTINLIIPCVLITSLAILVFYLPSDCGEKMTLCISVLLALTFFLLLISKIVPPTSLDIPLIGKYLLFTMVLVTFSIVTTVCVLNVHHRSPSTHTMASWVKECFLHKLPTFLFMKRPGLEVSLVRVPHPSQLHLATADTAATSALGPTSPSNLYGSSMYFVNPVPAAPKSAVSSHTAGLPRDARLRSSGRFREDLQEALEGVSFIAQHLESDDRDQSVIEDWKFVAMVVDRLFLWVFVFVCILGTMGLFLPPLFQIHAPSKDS
T4 sequence (P12392 21-495): as above
T4 sequence (P09483 31-630): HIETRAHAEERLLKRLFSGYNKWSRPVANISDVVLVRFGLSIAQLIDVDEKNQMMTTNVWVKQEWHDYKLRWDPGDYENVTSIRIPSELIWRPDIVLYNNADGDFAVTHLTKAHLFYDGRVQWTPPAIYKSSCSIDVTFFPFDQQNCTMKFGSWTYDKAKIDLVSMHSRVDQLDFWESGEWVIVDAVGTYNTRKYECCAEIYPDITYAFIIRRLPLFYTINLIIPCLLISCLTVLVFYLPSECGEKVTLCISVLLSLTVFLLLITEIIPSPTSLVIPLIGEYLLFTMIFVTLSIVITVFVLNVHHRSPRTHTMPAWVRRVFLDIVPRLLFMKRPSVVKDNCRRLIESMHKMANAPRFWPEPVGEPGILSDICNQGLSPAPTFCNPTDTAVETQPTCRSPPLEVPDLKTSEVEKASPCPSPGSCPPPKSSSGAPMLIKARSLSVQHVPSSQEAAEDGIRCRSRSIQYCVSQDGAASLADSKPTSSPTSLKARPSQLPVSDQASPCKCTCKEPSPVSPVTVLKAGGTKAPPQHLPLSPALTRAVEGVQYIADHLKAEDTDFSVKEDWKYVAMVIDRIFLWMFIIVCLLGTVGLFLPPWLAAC
T5 sequence (P04757 26-499): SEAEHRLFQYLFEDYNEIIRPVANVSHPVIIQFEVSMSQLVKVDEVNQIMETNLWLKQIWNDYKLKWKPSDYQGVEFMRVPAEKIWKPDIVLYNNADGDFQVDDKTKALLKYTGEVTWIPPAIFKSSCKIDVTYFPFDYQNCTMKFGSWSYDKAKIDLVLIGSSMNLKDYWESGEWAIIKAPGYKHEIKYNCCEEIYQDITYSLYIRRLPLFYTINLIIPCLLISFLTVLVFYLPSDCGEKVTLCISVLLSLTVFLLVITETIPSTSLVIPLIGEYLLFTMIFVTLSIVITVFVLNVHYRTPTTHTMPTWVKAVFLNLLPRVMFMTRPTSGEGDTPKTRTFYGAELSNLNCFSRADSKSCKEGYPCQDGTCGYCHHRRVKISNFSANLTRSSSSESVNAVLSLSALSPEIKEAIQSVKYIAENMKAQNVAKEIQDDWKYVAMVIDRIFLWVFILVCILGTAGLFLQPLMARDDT
T5 sequence (P12392 21-495): as the sequence (P12392 21-495) above
T7 sequence (P09483 31-630): as the sequence (P09483 31-630) above
T7 sequence (P12390 25-500): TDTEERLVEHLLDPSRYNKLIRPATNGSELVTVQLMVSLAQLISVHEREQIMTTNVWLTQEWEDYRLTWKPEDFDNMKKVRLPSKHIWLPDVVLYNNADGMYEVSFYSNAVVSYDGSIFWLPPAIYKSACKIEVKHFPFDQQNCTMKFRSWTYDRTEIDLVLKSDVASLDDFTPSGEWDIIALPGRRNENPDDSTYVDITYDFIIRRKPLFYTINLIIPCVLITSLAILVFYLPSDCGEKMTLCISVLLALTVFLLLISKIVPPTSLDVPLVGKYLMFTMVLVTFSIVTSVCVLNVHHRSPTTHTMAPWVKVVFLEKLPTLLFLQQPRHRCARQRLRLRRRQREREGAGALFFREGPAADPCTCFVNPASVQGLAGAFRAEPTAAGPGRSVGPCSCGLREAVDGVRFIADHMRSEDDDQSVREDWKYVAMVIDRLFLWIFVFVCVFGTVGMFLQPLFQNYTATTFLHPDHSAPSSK
T2 sequence (P12390 25-500): as above
T2 sequence (P12389 28-511): as the sequence (P12389 28-511) above
T6 sequence (P12390 25-500): as the sequence (P12390 25-500) above
T6 sequence (P04757 26-499): as the sequence (P04757 26-499) above
T1 sequence (P12390 25-500): as the sequence (P12390 25-500) above
T1 sequence (P09483 31-630): as the sequence (P09483 31-630) above

Row | SMILES | Ki [1, 10] [nM] | Ki [1, 11] [nM] | Ki [3, 12] [nM] | Ki [3, 13] [nM] | Ki [4, 14] [nM] | Ki [4, 15] [nM] | Ki [5, 16] [nM] | Ki [5, 17] [nM] | Ki [6, 18] [nM] | Ki [6, 19] [nM] | Ki [7, 20] [nM] | Ki [7, 21] [nM] | Ki [8] [nM] | Ki [9, 22] [nM] | also measured
1 | FCCCCC#Cc1cncc(OC[C@@H]2CCN2)c1 [Ligand 41] |  |  |  |  |  |  |  |  |  |  |  |  |  |  | affinities for α4β2 nAChR subtype (in words) [1]: subnanomolar; Affinity ratio (α3β4/Forbrain) [2]: 15,166
2 | CN1CCC[C@H]1COc1cncc(C#CCCCCCCCCO)c1 [Ligand 17, 5-(10-Hydroxy-1-decynyl)-3-(1-methyl-2(S) -pyrrolidinylmethoxy)pyridine] | 6.5 | 6.5 | 26.8 | 26.8 | 7800 | 7800 | 3560 | 3560 | 62700 | 62700 | 52.1 | 52.1 | 21.7 | 21.7 | 
3 | CN1CCC[C@H]1COc1cncc(C#CC(C)(C)O)c1 [Ligand 15, 5-(3-Hydroxy-3-methyl-1-butynyl)-3-(1-methyl-2(S)pyrrolidinylmethoxy)pyridine] | 1.34 | 1.34 | 1.93 | 1.93 | 5890 | 5890 | 5060 | 5060 | 32600 | 32600 | 19.7 | 19.7 | 8.39 | 8.39 | 
4 | CN1CCC[C@H]1COc1cncc(C#CCCCCO)c1 [Ligand 16, 5-(6-Hydroxy-1-hexynyl)-3-(1-methyl-2(S) -pyrrolidinylmethoxy)pyridine] | 0.81 | 0.81 | 2.87 | 2.87 | 3230 | 3230 | 1270 | 1270 | 40200 | 40200 | 12.6 | 12.6 | 3.56 | 3.56 | 
5 | C#Cc1cncc(OC[C@@H]2CCCN2C)c1 [Ligand 18, 5-(1-Ethynyl)-3-(1-methyl-2(S)-pyrrolidinylmethoxy)pyridine] | 1.02 | 1.02 | 0.75 | 0.749 | 434 | 434 | 473 | 473 | 3080 | 3080 | 10.7 | 10.7 | 3.65 | 3.65 | 
6 | CN1CCC[C@H]1COc1cncc(C#CCO)c1 [Ligand 14, 5-(3-Hydroxy-1-propargyl)-3-(1-methyl-2(S)-pyrrolidinylmethoxy)pyridine] | 0.954 | 0.954 | 2.43 | 2.43 | 1880 | 1880 | 1690 | 1690 | 18200 | 18200 | 7.64 | 7.64 | 3.16 | 3.16 | 
7 | OCCCCC#Cc1cncc(OC[C@@H]2CCN2)c1 [Ligand 26] |  |  |  |  |  |  |  |  |  |  |  |  |  |  | selectivity at α4β2 vs ganglionic α3β4 receptors ([1]; text b206): 54,000 fold; more selective for α4β2 over α3β4 than the corresponding parent compounds 7, 8, and 2 ([1]; text b210): 2 orders of magnitude; Affinity ratio (α3β4/Forbrain) [2]: 53,778
8 | CN1CCC[C@H]1COc1cccnc1 [Ligand 8, 3-(1-Methyl-2(S)-pyrrolidinylmethoxy)pyridine, reference compound] |  |  |  |  |  |  |  |  |  |  |  |  |  |  | Ki [1, 23]: 1.4 nM; Ki ([1]; Ki α4β2, Table 6, [3H]-EB 0.099 nM, 0.091 nM, ligand 0.00197-100 μM, n = 1): 1.4 nM; Ki [3, 24]: 1.07 nM; Ki ([3]; Ki α2β2, Table 6, [3H]-EB 0.099 nM, 0.091 nM, ligand 0.00197-100 μM, n = 1): 1.07 nM; Ki [4, 25]: 209 nM; Ki ([4]; Ki α2β4, Table 6, [3H]-EB 0.099 nM, 0.091 nM, ligand 0.00197-100 μM, n = 1): 209 nM; Ki [5, 26]: 205 nM; Ki ([5]; Ki α4β4, Table 6, [3H]-EB 0.099 nM, 0.091 nM, ligand 0.00197-100 μM, n = 1): 205 nM; Ki [6, 27]: 835 nM; Ki ([6]; Ki α3β4, Table 6, [3H]-EB 0.099 nM, 0.091 nM, ligand 0.00197-100 μM, n = 1): 835 nM; Ki [7, 28]: 9.04 nM; Ki ([7]; Ki α3β2, Table 6, [3H]-EB 0.099 nM, 0.091 nM, ligand 0.00197-100 μM, n = 1): 9.04 nM; Ki ([9]; Ki α4β2**, Table 6, **Forebrain mainly α4β2, [3H]-EB 0.099 nM, 0.091 nM, n = 1): 5.15 nM; Ki [9, 29]: 5.15 nM
9 | Clc1ccc2c(n1)CCC21CC2CCC1N2 (stereo not drawn) [Ligand 58b] |  |  |  |  |  |  | 9560 |  |  |  |  |  |  |  | Ki [1, 23]: 5050 nM; Ki ([1]; Table 3, mean ± SEM of 3 (nicotine, 1: 3 to 6) independent measurements, read-out: Ki α4β2): 6990 nM; Ki [3, 24]: 2460 nM; Ki [4, 25]: 7090 nM; Ki ([4]; Table 3, mean ± SEM of 3 (nicotine, 1: 3 to 6) independent measurements, read-out: Ki α2β4): 7180 nM; Ki ([5]; Table 3, mean ± SEM of 3 (nicotine, 1: 3 to 6) independent measurements, read-out: Ki α4β4): 9460 nM; Ki [6, 27]: 14900 nM; Ki ([6]; Table 3, mean ± SEM of 3 (nicotine, 1: 3 to 6) independent measurements, read-out: Ki α3β4): 13800 nM; Ki [7, 28]: 3660 nM; Ki ([7]; Table 3, mean ± SEM of 3 (nicotine, 1: 3 to 6) independent measurements, read-out: Ki α3β2): 4070 nM; Ki [9, 29]: 12100 nM
10 | O=c1cccc2n1C[C@H]1C[C@@H]2CN(CCCCl)C1 [ZW-16] |  |  |  |  |  |  |  |  |  |  |  |  |  |  | Ki [1]: 571 nM; Ki [3]: 1340 nM; Ki [4]: 2630 nM; Ki [5]: 732 nM; Ki [6]: > 10000 nM; Ki [7]: > 1000 nM; Ki [9]: 1500 nM
11 | CN1CCC[C@H]1COc1cncc(CCCCCCO)c1 [Ligand 19, 5-(6-Hydroxy-1-hexanyl)-3-(1-methyl-2(S) -pyrrolidinylmethoxy)pyridine] | 0.75 | 0.754 | 3.33 | 3.33 | 1150 | 1150 | 968 | 968 | 20000 | 20000 | 13.4 | 13.4 | 5.39 | 5.39 | 
12 | C#Cc1cncc(OC[C@@H]2CCCN2C)c1 [Ligand 18] |  |  |  |  |  |  |  |  |  |  |  |  |  |  | Ki ([1]; Ki α4β2, Table 1, mean of 3 (1, 2: 3 to 6) independent measurements): 1.02 nM; Ki ([3]; Ki α2β2, Table 1, mean of 3 (1, 2: 3 to 6) independent measurements): 0.75 nM; Ki ([4]; Ki α2β4, Table 1, mean of 3 (1, 2: 3 to 6) independent measurements): 434 nM; Ki ([5]; Ki α4β4, Table 1, mean of 3 (1, 2: 3 to 6) independent measurements): 473 nM; Ki ([6]; Ki α3β4, Table 1, mean of 3 (1, 2: 3 to 6) independent measurements): 3080 nM; Ki ([7]; Ki α3β2, Table 1, mean of 3 (1, 2: 3 to 6) independent measurements): 10.7 nM; Ki ([9]; Ki Rat forebrain, Table 1, mean of 3 (1, 2: 3 to 6) independent measurements): 3.65 nM
13 | CCCCCC#Cc1ccc(C2CC3CCC2N3)cn1 (stereo not drawn) [Ligand 34] |  |  |  |  |  |  |  |  |  |  |  |  |  |  | Ki [1, 23]: 67.7 nM; Ki [3, 24]: 16.9 nM; Ki [4, 25]: 67.4 nM; Ki [5, 26]: 61.8 nM; Ki [6, 27]: 95.4 nM; Ki [7, 28]: 19.8 nM; Ki [9, 29]: 52 nM
14 | CCCCCc1cncc(C2CC3CCC2N3)c1 (stereo not drawn) [ZW-95] |  |  |  |  |  |  |  |  |  |  |  |  |  |  | Ki [1, 23]: 0.151 nM; Ki [3, 24]: 0.323 nM; Ki [4, 25]: 24.9 nM; Ki [5, 26]: 7.91 nM; Ki [6, 27]: 122 nM; Ki [7, 28]: 0.165 nM; Ki [9, 29]: 0.314 nM
15 | Clc1ccc(C2CC3CCC2N3CCCN2C3CCC2C(c2ccc(Cl)nc2)C3)cn1 (stereo not drawn) [Ligand 59b, Propane-1,3-N,N′-bisepibatidine] | 8.66 |  | 6.08 |  | 15.7 |  | 23.3 |  | 62.9 |  | 5.17 |  |  | 10.1 | 
